Assay results taken from patent publication US9409966B2, “Glucagon-like peptide-1 derivatives and their pharmaceutical use” (priority 2007, dated 2016).
pEC50: −log10 of the molar value. *1 amine or outer side, *2 acyl side, *3 side chain or, on linkers, in order; H or OH if unused. Where a SMILES comes first, the peptide text is derived from it. Side-chain parts run from the residue outwards. [ ]: non-standard residue; d: D form. The star is where a group is joined. C18 diacid = O=C(O)CCCCCCCCCCCCCCCCC(=O)*; γGlu = O=C(O)[C@H](CCC(=O)[*:2])N[*:1]; AEEA = NCCOCCOCC(=O)O; Aib = CC(C)(N)C(=O)O

How the values were obtained:
human GLP-1 receptor = molecular target: T1, human GLP-1 receptor (Homo sapiens, UniProt P43220); assay: Stimulation of cAMP formation in a cell line expressing the cloned human GLP-1 receptor; type: biochemical; details: cAMP production, purified plasma membranes from BHK467-12A (tk-ts13), AlphaScreen cAMP Assay Kit; read-out: Potency [EC50/nM]
T1 construct: expressed in transfected cells; host or cells: BHK467-12A (tk-ts13) baby hamster kidney cells; purified plasma membranes
T1 sequence (P43220 24-463): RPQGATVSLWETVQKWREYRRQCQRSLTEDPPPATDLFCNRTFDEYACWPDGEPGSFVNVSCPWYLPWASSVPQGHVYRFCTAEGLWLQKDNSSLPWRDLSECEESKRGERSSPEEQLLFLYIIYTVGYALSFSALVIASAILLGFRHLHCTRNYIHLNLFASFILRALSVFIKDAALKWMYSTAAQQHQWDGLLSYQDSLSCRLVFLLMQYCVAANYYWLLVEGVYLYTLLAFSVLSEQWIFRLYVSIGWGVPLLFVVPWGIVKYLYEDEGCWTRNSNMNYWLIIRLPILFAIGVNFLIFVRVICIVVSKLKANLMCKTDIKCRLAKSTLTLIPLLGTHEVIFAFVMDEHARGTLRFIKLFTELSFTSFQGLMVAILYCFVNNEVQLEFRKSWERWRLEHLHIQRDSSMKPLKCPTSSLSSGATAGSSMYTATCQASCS

[1] = molecular target: human serum albumin (HSA) (Homo sapiens, UniProt P02768); assay: Albumin binding affinity, competition scintillation proximity assay (SPA)
human serum albumin (HSA), sequence (P02768 25-609): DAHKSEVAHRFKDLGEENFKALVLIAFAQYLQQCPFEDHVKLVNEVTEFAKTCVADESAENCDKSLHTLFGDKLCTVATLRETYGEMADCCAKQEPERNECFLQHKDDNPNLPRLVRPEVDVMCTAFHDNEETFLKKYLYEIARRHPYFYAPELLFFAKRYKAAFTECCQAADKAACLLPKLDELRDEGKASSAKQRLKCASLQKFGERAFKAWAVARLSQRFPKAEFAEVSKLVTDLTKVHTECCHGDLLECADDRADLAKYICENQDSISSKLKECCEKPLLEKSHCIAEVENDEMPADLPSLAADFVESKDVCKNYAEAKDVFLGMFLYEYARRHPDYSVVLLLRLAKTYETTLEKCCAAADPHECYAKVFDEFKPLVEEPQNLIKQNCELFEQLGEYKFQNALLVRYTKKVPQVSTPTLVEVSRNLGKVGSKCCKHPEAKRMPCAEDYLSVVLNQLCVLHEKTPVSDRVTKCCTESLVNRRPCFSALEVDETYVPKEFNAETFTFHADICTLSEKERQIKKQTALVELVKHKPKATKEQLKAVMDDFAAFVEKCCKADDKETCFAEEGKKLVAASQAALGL
Procedure: Streptavidin-SPA beads (GE Healthcare RPNQ0009) were incubated with biotinylated HSA for 5 hours. The beads were washed with buffer to remove unbound HSA. […] After 20 hours of gentle rocking at room temperature the plates were centrifuged and counted on a TopCounter.

CC[C@H](C)[C@H](NC(=O)[C@H](Cc1ccccc1)NC(=O)[C@H](CCC(=O)O)NC(=O)[C@H](CCCNC(=N)N)NC(=O)[C@H](C)NC(=O)[C@H](C)NC(=O)[C@H](CCC(N)=O)NC(=O)[C@H](CCC(=O)O)NC(=O)[C@H](CCC(=O)O)NC(=O)[C@H](CC(C)C)NC(=O)[C@H](Cc1ccc(O)cc1)NC(=O)[C@H](CO)NC(=O)[C@H](CO)NC(=O)[C@@H](NC(=O)[C@H](CC(=O)O)NC(=O)[C@H](CO)NC(=O)[C@@H](NC(=O)[C@H](Cc1ccccc1)NC(=O)[C@@H](NC(=O)CNC(=O)[C@H](CCC(=O)O)NC(=O)C(C)(C)NC(=O)[C@@H](N)Cc1c[nH]cn1)[C@@H](C)O)[C@@H](C)O)C(C)C)C(=O)N[C@@H](C)C(=O)N[C@@H](Cc1c[nH]c2ccccc12)C(=O)N[C@@H](CC(C)C)C(=O)N[C@H](C(=O)N[C@@H](CCCNC(=N)N)C(=O)NCC(=O)N[C@@H](CCCNC(=N)N)C(=O)N[C@@H](CCCCNC(=O)COCCOCCNC(=O)CC[C@H](NC(=O)CC[C@H](NC(=O)CCCCCCCCCCCNC(=O)CCCS(=O)(=O)NC(=O)CCCCCCCCCCCCCCCc1nnn[nH]1)C(=O)O)C(=O)O)C(N)=O)C(C)C [Example 12, N-epsilon37-[2-(2-{2-[(S)-4-Carboxy-4-((S)-4-carboxy-4-{12-[4-(16-(1H-tetrazol-5-yl)hexadecanoylsulfamoyl)butyrylamino]dodecanoylamino}butyrylamino)butyrylamino]ethoxy}ethoxy)acetyl][Aib8,Glu22,Arg26,Arg34,Lys37]GLP-1-(7-37)amide] showed an EC50 (human GLP-1 receptor) of 1.8 nM and a pEC50 [1] of 5.82 to 6.10.

CC[C@H](C)[C@H](NC(=O)[C@H](Cc1ccccc1)NC(=O)[C@H](CCC(=O)O)NC(=O)[C@H](CCCNC(=N)N)NC(=O)[C@H](C)NC(=O)[C@H](C)NC(=O)[C@H](CCC(N)=O)NC(=O)[C@H](CCC(=O)O)NC(=O)[C@H](CCC(=O)O)NC(=O)[C@H](CC(C)C)NC(=O)[C@H](Cc1ccc(O)cc1)NC(=O)[C@H](CO)NC(=O)[C@H](CO)NC(=O)[C@@H](NC(=O)[C@H](CC(=O)O)NC(=O)[C@H](CO)NC(=O)[C@@H](NC(=O)[C@H](Cc1ccccc1)NC(=O)[C@@H](NC(=O)CNC(=O)[C@H](CCC(=O)O)NC(=O)[C@H](C)NC(=O)CCc1c[nH]cn1)[C@@H](C)O)[C@@H](C)O)C(C)C)C(=O)N[C@@H](C)C(=O)N[C@@H](Cc1c[nH]c2ccccc12)C(=O)N[C@@H](CC(C)C)C(=O)N[C@H](C(=O)N[C@@H](CCCNC(=N)N)C(=O)NCC(=O)N[C@@H](CCCNC(=N)N)C(=O)N[C@@H](CCCCNC(=O)COCCOCCNC(=O)CC[C@H](NC(=O)CC[C@H](NC(=O)CC[C@H](NC(=O)CCCCCCCCCCCCCCCCCCC(=O)O)C(=O)O)C(=O)O)C(=O)O)C(=O)O)C(C)C [Example 25, N-epsilon37-(2-{2-[2-((S)-4-Carboxy-4-{(S)-4-carboxy-4-[(S)-4-carboxy-4-(19-carboxy-nonadecanoylamino)butyrylamino]butyrylamino}butyrylamino)ethoxy]ethoxy}acetyl)[DesaminoHis7,Glu22,Arg26,Arg34,Lys37]GLP-1-(7-37)] gave an EC50 (human GLP-1 receptor) of 0.36 nM and a pEC50 [1] of 6.70 to 6.82.

In the case of CCCCCCCCCCCCCCCC(=O)N[C@@H](CCC(=O)NCCOCCOCC(=O)NCCOCCOCC(=O)NCCCC[C@H](NC(=O)[C@H](CCCNC(=N)N)NC(=O)CNC(=O)[C@H](CCCNC(=N)N)NC(=O)[C@@H](NC(=O)[C@H](CC(C)C)NC(=O)[C@H](Cc1c[nH]c2ccccc12)NC(=O)[C@H](C)NC(=O)[C@@H](NC(=O)[C@H](Cc1ccccc1)NC(=O)[C@H](CCC(=O)O)NC(=O)[C@H](CCCNC(=N)N)NC(=O)[C@H](C)NC(=O)[C@H](C)NC(=O)[C@H](CCC(N)=O)NC(=O)[C@H](CCC(=O)O)NC(=O)[C@H](CCC(=O)O)NC(=O)[C@H](CC(C)C)NC(=O)[C@H](Cc1ccc(O)cc1)NC(=O)[C@H](CO)NC(=O)[C@H](CO)NC(=O)[C@@H](NC(=O)[C@H](CC(=O)O)NC(=O)[C@H](CO)NC(=O)[C@@H](NC(=O)[C@H](Cc1ccccc1)NC(=O)[C@@H](NC(=O)CNC(=O)[C@H](CCC(=O)O)NC(=O)[C@H](C)NC(=O)CCc1c[nH]cn1)[C@@H](C)O)[C@@H](C)O)C(C)C)[C@@H](C)CC)C(C)C)C(N)=O)C(=O)O [Example 18, N-epsilon37-{2-(2-(2-(2-[2-(2-(4-(hexadecanoylamino)-4-carboxybutyrylamino)ethoxy)ethoxy]acetyl)ethoxy)ethoxy)acetyl)}-[desaminoHis7,Glu22, Arg26,Arg34,Lys 37] (GLP-1-(7-37)amide], the EC50 (human GLP-1 receptor) was 0.02 nM and the pEC50 [1] was under 5.70.

In the case of CC[C@H](C)[C@H](NC(=O)[C@H](Cc1ccccc1)NC(=O)[C@H](CCC(=O)O)NC(=O)[C@H](CCCNC(=N)N)NC(=O)[C@H](C)NC(=O)[C@H](C)NC(=O)[C@H](CCC(N)=O)NC(=O)[C@H](CCC(=O)O)NC(=O)[C@H](CCC(=O)O)NC(=O)[C@H](CC(C)C)NC(=O)[C@H](Cc1ccc(O)cc1)NC(=O)[C@H](CO)NC(=O)[C@H](CO)NC(=O)[C@@H](NC(=O)[C@H](CC(=O)O)NC(=O)[C@H](CO)NC(=O)[C@@H](NC(=O)[C@H](Cc1ccccc1)NC(=O)[C@@H](NC(=O)CNC(=O)[C@H](CCC(=O)O)NC(=O)C(C)(C)NC(=O)[C@@H](N)Cc1c[nH]cn1)[C@@H](C)O)[C@@H](C)O)C(C)C)C(=O)N[C@@H](C)C(=O)N[C@@H](CCCCNC(=O)COCCOCCNC(=O)COCCOCCNC(=O)CC[C@H](NC(=O)CCCCCCCCCCCCCCCCC(=O)O)C(=O)O)C(=O)N[C@@H](CC(C)C)C(=O)N[C@H](C(=O)N[C@@H](CCCCN)C(=O)NCC(=O)N[C@@H](CCCNC(=N)N)C(=O)NCC(=O)O)C(C)C [Example 23, N-epsilon31-[2-(2-{2-[2-(2-{2-[4-Carboxy-4-(17-carboxy-heptadecanoylamino)butyrylamino]ethoxy}ethoxy)acetylamino]ethoxy}ethoxy)acetyl][Aib8,Glu22,Arg26,Lys31]GLP-1-(7-37)] (H-H[Aib]EGTFTSDVSSYLEEQAAREFIAK([AEEA-AEEA-γGlu-C18 diacid])LVKGRG-OH), the EC50 (human GLP-1 receptor) was 0.02 nM and the pEC50 [1] was 5.70 to 5.82.

With CC[C@H](C)[C@H](NC(=O)[C@H](Cc1ccccc1)NC(=O)[C@H](CCC(=O)O)NC(=O)[C@H](CCCNC(=N)N)NC(=O)[C@H](C)NC(=O)[C@H](C)NC(=O)[C@H](CCC(N)=O)NC(=O)[C@H](CCC(=O)O)NC(=O)[C@H](CCC(=O)O)NC(=O)[C@H](CC(C)C)NC(=O)[C@H](Cc1ccc(O)cc1)NC(=O)[C@H](CO)NC(=O)[C@H](CO)NC(=O)[C@@H](NC(=O)[C@H](CC(=O)O)NC(=O)[C@H](CO)NC(=O)[C@@H](NC(=O)[C@H](Cc1ccccc1)NC(=O)[C@@H](NC(=O)CNC(=O)[C@H](CCC(=O)O)NC(=O)[C@H](C)NC(=O)CCc1c[nH]cn1)[C@@H](C)O)[C@@H](C)O)C(C)C)C(=O)N[C@@H](C)C(=O)N[C@@H](Cc1c[nH]c2ccccc12)C(=O)N[C@@H](CC(C)C)C(=O)N[C@H](C(=O)N[C@@H](CCCNC(=N)N)C(=O)NCC(=O)N[C@@H](CCCNC(=N)N)C(=O)N[C@@H](CCCCNC(=O)COCCOCCNC(=O)CC[C@H](NC(=O)CC[C@H](NC(=O)CCCCCCCCCCCNC(=O)CCCS(=O)(=O)NC(=O)CCCCCCCCCCCCCCCc1nnn[nH]1)C(=O)O)C(=O)O)C(N)=O)C(C)C [Example 13, N-epsilon37-[2-(2-{2-[(S)-4-Carboxy-4-((S)-4-carboxy-4-{12-[4-(16-(1H-tetrazol-5-yl)hexadecanoylsulfamoyl)butyrylamino]dodecanoylamino}butyrylamino)butyrylamino]ethoxy}ethoxy)acetyl][DesaminoHis7,Glu22,Arg26,Arg34,Lys37]GLP-1-(7-37)amide] the EC50 (human GLP-1 receptor) was 1.97 nM and the pEC50 [1] was 6.82 to 7.00.
